In patent publication US20240425501A1, “NOVEL BICYCLIC HETEROARYL DERIVATIVES AS SOS1:KRAS PROTEINPROTEIN INTERACTION INHIBITORS” (SATYARX PHARMA INNOVATIONS PVT LTD, priority 2021, published 2024):

Each compound was assayed against T1, hSOS1 enzyme / KRAS (G12C), GST-Tag, GDP-bound protein (Homo sapiens, UniProt Q07889) (assay: SOS1-mediated KRAS guanine nucleotide exchange (GEF) assay, HTRF ("On Assay")). Details: 1 μM compound.
T1 sequence (Q07889 564-1049 limits assumed): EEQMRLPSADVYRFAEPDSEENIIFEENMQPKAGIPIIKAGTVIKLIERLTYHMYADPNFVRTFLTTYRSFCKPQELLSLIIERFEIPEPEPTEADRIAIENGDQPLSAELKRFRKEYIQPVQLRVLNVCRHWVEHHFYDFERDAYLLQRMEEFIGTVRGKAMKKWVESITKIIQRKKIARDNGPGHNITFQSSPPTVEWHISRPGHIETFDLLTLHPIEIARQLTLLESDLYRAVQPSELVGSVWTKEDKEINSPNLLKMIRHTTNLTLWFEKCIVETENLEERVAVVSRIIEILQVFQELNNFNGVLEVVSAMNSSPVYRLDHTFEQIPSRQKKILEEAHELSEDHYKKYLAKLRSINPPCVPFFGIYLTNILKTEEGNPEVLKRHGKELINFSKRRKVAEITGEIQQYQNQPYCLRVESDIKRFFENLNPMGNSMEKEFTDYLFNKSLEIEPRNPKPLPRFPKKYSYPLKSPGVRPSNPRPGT
Type: biochemical
Experimental: Biochemical Assay: Measurement of SOS1-Mediated KRAS Guanine Nucleotide Exchange (GEF) Assay
This assay quantifies the HTRF-based SOS1 mediated guanine nucleotide exchange assay detecting GTP binding to KRAS (G12C), GST-Tag, GDP-bound protein. This is also referred as “On Assay”.The assay buffer composition is as follows: 10 mM HEPES pH-7, 150 mM NaCl, 5 mM MgCl2, 1 mM DTT, 0.05% BSA, 0.0025% IGEPAL CA-630 and MilliQ water. 0.5 μl of compounds diluted in assay buffer were dispensed into the respective wells of 384 black well test plate. 4.75 μl of KRAS working solution containing 100 nM KRAS (G12C), GST-Tag, GDP-bound protein GDP-loaded (Reaction biology) and 2 nM Anti GST-Tb cryptate (FRET donor, Cisbio) was added in assay buffer. The components were incubated for 10 min at 25° C.
4.75 μl of hSOS1 working solution containing 20 nM hSOS1 enzyme and 200 nM EDA-GTP-DY-647P (FRET acceptor, synthesized by Jena Bioscience (Germany), supplied as a 1 mM solution) was further added in assay buffer. 4.75 μl of inhibitor control having only 200 nM EDA-GTP-DY-647P1 component without hSOS1 working solution was added in the negative control well. The plate was short spun for few seconds and incubated for 10 min. HTRF was measured using Perkin Elmer-Nivo 5F multimode plate reader.
HTRF settings: EXCITATION FILTER—320/75 nm, EMISSION FILTER (1) —615/8 nm, EMISSION FILTER (2)—665/8 nm

Row | Compound | inhibition at 1 µM [%]
1 | CCN1CCN(c2cc3c(N[C@H](C)c4cc(N)cc(C(F)(F)F)c4)nc(Cl)nc3cc2C)CC1 [Example 71, (R)—N-(1-(3-amino-5-(trifluoromethyl)phenyl)ethyl)-2-chloro-6-(4-ethylpiperazin-1-yl)-7-methylquinazolin-4-amine] | ≥ 50
2 | COc1nc(N[C@H](C)c2cc(N)cc(C(F)(F)F)c2)c2cc(N3CCOCC3)ncc2n1 [Example 57, (R)—N-(1-(3-amino-5-(trifluoromethyl)phenyl)ethyl)-2-methoxy-6-morpholinopyrido[3,4-d]pyrimidin-4-amine] | ≥ 50
3 | COc1nc(N[C@H](C)c2cc(N)cc(C(F)(F)F)c2)c2cc(N3CCC(OC)CC3)ncc2n1 [Example 58, (R)—N-(1-(3-amino-5-(trifluoromethyl)phenyl)ethyl)-2-methoxy-6-(4-methoxypiperidin-1-yl)pyrido[3,4-d]pyrimidin-4-amine] | ≥ 50
4 | CNc1nc(N[C@H](C)c2cc(N)cc(C(F)(F)F)c2)c2cc(N3CCN(C)CC3)ncc2n1 [Example 31, (R)—N4-(1-(3-amino-5-(trifluoromethyl)phenyl)ethyl)-N2-methyl-6-(4-methylpiperazin-1-yl)pyrido[3,4-d]pyrimidine-2,4-diamine] | ≥ 50
5 | C[C@@H](Nc1nc(NCCN(C)C)nc2cnc(N3CCCC3)cc12)c1cc(N)cc(C(F)(F)F)c1 [Example 9, (R)—N4-(1-(3-amino-5-(trifluoromethyl)phenyl)ethyl)-N2-(2-(dimethylamino)ethyl)-6-(pyrrolidin-1-yl)pyrido[3,4-d]pyrimidine-2,4-diamine] | ≥ 50
6 | CNc1nc(N[C@H](C)c2cc(N)cc(C(F)(F)F)c2)c2cc(N3CCC(F)CC3)ncc2n1 [Example 33, (R)—N4-(1-(3-amino-5-(trifluoromethyl)phenyl)ethyl)-6-(4-fluoropiperidin-1-yl)-N2-methylpyrido[3,4-d]pyrimidine-2,4-diamine] | ≥ 50
7 | COc1nc(N[C@H](C)c2cc(N)cc(C(F)(F)F)c2)c2cc(N3CCCC3)ncc2n1 [Example 3, (R)—N-(1-(3-amino-5-(trifluoromethyl)phenyl)ethyl)-2-methoxy-6-(pyrrolidin-1-yl)pyrido[3,4-d]pyrimidin-4-amine] | ≥ 50
8 | C[C@@H](Nc1nc(Cl)nc2cnc(N3CCC(F)CC3)cc12)c1cc(N)cc(C(F)(F)F)c1 [Example 22, (R)—N-(1-(3-amino-5-(trifluoromethyl)phenyl)ethyl)-2-chloro-6-(4-fluoropiperidin-1-yl)pyrido[3,4-d]pyrimidin-4-amine] | ≥ 50
9 | C[C@@H](Nc1nc(Cl)nc2cnc(N3CCOCC3)cc12)c1cccc(C(F)F)c1F [Example 59, (R)-2-chloro-N-(1-(3-(difluoromethyl)-2-fluorophenyl)ethyl)-6-morpholinopyrido[3,4-d]pyrimidin-4-amine] | ≥ 50
10 | CNCCC(=O)Nc1nc(N[C@H](C)c2cc(N)cc(C(F)(F)F)c2)c2cc(N3CCCC3)ncc2n1 [Example 78] | ≥ 50
11 | CCN1CCN(c2cnc3nc(Cl)nc(N[C@H](C)c4cc(N)cc(C(F)(F)F)c4)c3c2)CC1 [Example 80, (R)—N-(1-(3-amino-5-(trifluoromethyl)phenyl)ethyl)-2-chloro-6-(4-ethylpiperazin-1-yl)pyrido[2,3-d]pyrimidin-4-amine] | ≥ 50
12 | C[C@@H](Nc1nc(N2CCC2)nc2cnc(N3CCN(C)CC3)cc12)c1cc(N)cc(C(F)(F)F)c1 [Example 46, (R)—N-(1-(3-amino-5-(trifluoromethyl)phenyl)ethyl)-2-(azetidin-1-yl)-6-(4-methylpiperazin-1-yl)pyrido[3,4-d]pyrimidin-4-amine] | ≥ 50
13 | COC1CCN(c2cc3c(N[C@H](C)c4cc(N)cc(C(F)(F)F)c4)nc(NC(C)C)nc3cn2)CC1 [Example 42, (R)—N4-(1-(3-amino-5-(trifluoromethyl)phenyl)ethyl)-N2-isopropyl-6-(4-methoxypiperidin-1-yl)pyrido[3,4-d]pyrimidine-2,4-diamine] | ≥ 50
14 | CCN1CCN(c2cc3c(N[C@H](C)c4cccc(C(F)F)c4F)nc(Cl)nc3cn2)CC1 [Example 62, (R)-2-chloro-N-(1-(3-(difluoromethyl)-2-fluorophenyl)ethyl)-6-(4-ethylpiperazin-1-yl)pyrido[3,4-d]pyrimidin-4-amine] | ≥ 50
15 | C[C@@H](Nc1nc(Cl)nc2cnc(N3CCN(C4CC4)CC3)cc12)c1cc(N)cc(C(F)(F)F)c1 [Example 26, (R)—N-(1-(3-amino-5-(trifluoromethyl)phenyl)ethyl)-2-chloro-6-(4-cyclopropylpiperazin-1-yl)pyrido[3,4-d]pyrimidin-4-amine] | ≥ 50
16 | C[C@@H](Nc1nc(N2CCC2)nc2cnc(N3CCC(F)CC3)cc12)c1cc(N)cc(C(F)(F)F)c1 [Example 44, (R)—N-(1-(3-amino-5-(trifluoromethyl)phenyl)ethyl)-2-(azetidin-1-yl)-6-(4-fluoropiperidin-1-yl)pyrido[3,4-d]pyrimidin-4-amine] | ≥ 50
17 | C[C@@H](Nc1nc(Cl)nc2cnc(C3CCOCC3)cc12)c1cc(N)cc(C(F)(F)F)c1 [Example 63, (R)—N-(1-(3-amino-5-(trifluoromethyl)phenyl)ethyl)-2-chloro-6-(tetrahydro-2H-pyran-4-yl)pyrido[3,4-d]pyrimidin-4-amine] | ≥ 50
18 | CCN1CCN(c2cnc3nc(OC)nc(N[C@H](C)c4cc(N)cc(C(F)(F)F)c4)c3c2)CC1 [Example 81, (R)—N-(1-(3-amino-5-(trifluoromethyl)phenyl)ethyl)-6-(4-ethylpiperazin-1-yl)-2-methoxypyrido[2,3-d]pyrimidin-4-amine] | ≥ 50
19 | CC1CCN(c2cc3c(N[C@H](C)c4cc(N)cc(C(F)(F)F)c4)nc(Cl)nc3cn2)CC1 [Example 27, (R)—N-(1-(3-amino-5-(trifluoromethyl)phenyl)ethyl)-2-chloro-6-(4-methylpiperidin-1-yl)pyrido[3,4-d]pyrimidin-4-amine] | ≥ 50
20 | CNc1nc(N[C@H](C)c2cc(N)cc(C(F)(F)F)c2)c2cc(N3CCCC3)ncc2n1 [Example 7, (R)—N4-(1-(3-amino-5-(trifluoromethyl)phenyl)ethyl)-N2-methyl-6-(pyrrolidin-1-yl)pyrido[3,4-d]pyrimidine-2,4-diamine] | ≥ 50
21 | CNCCNc1nc(N[C@H](C)c2cc(N)cc(C(F)(F)F)c2)c2cc(N3CCOCC3)ncc2n1 [Example 35, (R)—N4-(1-(3-amino-5-(trifluoromethyl)phenyl)ethyl)-N2-(2-(methylamino)ethyl)-6-morpholinopyrido[3,4-d]pyrimidine-2,4-diamine] | ≥ 50
22 | C[C@@H](Nc1nc(Cl)nc2cnc(N3CCN(C4CCC4)CC3)cc12)c1cc(N)cc(C(F)(F)F)c1 [Example 28, (R)—N-(1-(3-amino-5-(trifluoromethyl)phenyl)ethyl)-2-chloro-6-(4-cyclobutylpiperazin-1-yl)pyrido[3,4-d]pyrimidin-4-amine] | ≥ 50
23 | CNc1nc(N[C@H](C)c2cc(N)cc(C(F)(F)F)c2)c2cc(C3CCOCC3)ncc2n1 [Example 66, (R)—N4-(1-(3-amino-5-(trifluoromethyl)phenyl)ethyl)-N2-methyl-6-(tetrahydro-2H-pyran-4-yl)pyrido[3,4-d]pyrimidine-2,4-diamine] | ≥ 50
24 | CNCCC(=O)Nc1nc(N[C@H](C)c2cc(N)cc(C(F)(F)F)c2)c2cc(N3CCOCC3)ncc2n1 [Example 79, (R)—N-(4-((1-(3-amino-5-(trifluoromethyl)phenyl)ethyl)amino)-6-morpholinopyrido[3,4-d]pyrimidin-2-yl)-3-(methylamino)propanamide] | ≥ 50
25 | CCN1CCN(c2cc3c(N[C@H](C)c4cc(N)cc(C(F)(F)F)c4)nc(Cl)nc3cc2F)CC1 [Example 70, (R)—N-(1-(3-amino-5-(trifluoromethyl)phenyl)ethyl)-2-chloro-6-(4-ethylpiperazin-1-yl)-7-fluoroquinazolin-4-amine] | ≥ 50
26 | C[C@@H](Nc1nc(Cl)nc2cnc(N3CCN(C)CC3)cc12)c1cc(N)cc(C(F)(F)F)c1 [Example 23, (R)—N-(1-(3-amino-5-(trifluoromethyl)phenyl)ethyl)-2-chloro-6-(4-methylpiperazin-1-yl)pyrido[3,4-d]pyrimidin-4-amine] | ≥ 50
